Patent US20080058368A1, “4,5,6,7-Tetrahydro-[1,2]Dithiolo[4,3-C] Pyridine-3-Thione Compounds” (priority 2004, published 2008)

Key:
[1] = tested on: C/EBPβ; assay: C/EBPβ activation (phosphorylation, nuclear translocation) by immunochemical method in treated cells; format: cell-based; design: key to C/EBPβ activation: O: same enzyme induction as oltipraz; OO: stronger enzyme induction than oltipraz; conditions: for C/EBPβ activation: 30 μM, 24 hours, nuclear fractions or lysates, relative to oltipraz; for phosphorylation of 105Serine residue of C/EBPβ: after 3 hours from the culture; for p-C/EBPβ (105Serine) localisation, cytoplasmic to nuclear fractions: after 6 hours
Experimental: (§1) The present experimental example is to confirm C/EBPβ activation by using Compound 1 and Compound 2 which were prepared in the above Examples, and a degree of increase of Glutathione S-transferase A (GSTA), a representative gene which is induced by C/EBPβ activation. […] 0.7 mg/ml of MTT (yellow tetrazolium salt) was added thereto and further cultured for 4 hours. Since MTT is reduced to insoluble formazan crystal in survived cells, the produced crystal was dissolved with DMSO solvent, and the absorbance at 595 nm was measured. The cells were cultured with the newly prepared compounds except for the compounds which kill cells, i.e., Compound 1 and Compound 2 (each 30 μM), for 24 hours, and C/EBPβ activation and GSTA expression in nuclear fractions or lysates obtained from the treated cells were measured by immunochemical method.
When C/EBPβ gene is deleted in animals, regeneration of live tissue is impossible [Greenbaum et al., J Clin Invest. 1998; 102(5):996-1007]. C/EBPβ activation inhibits transforming growth factors (TGF-β) which is a mediating factor of hepatic fibrosis [Kang et al., FASEB J. 2002; 16(14):1988-90]. Therefore, C/EBPβ activation plays an important role in liver tissue regeneration and hepatic fibrosis inhibition. C/EBPβ activation process takes place by mediating phosphorylation of specific amino acid residue, i.e., ^105Serine residue of C/EBPβ [Buck et al., Mol. Cell. 1999; 4(6):1087-92]. Under this background art, it was observed whether or not direct increase of RSK1's activity by the compounds of the present invention induces phosphorylation of ^105Serine residue of C/EBPβ. […] In this experimental example, oltipraz was used as comparative example.

[2] = tested on: Glutathione S-transferase A (GSTA); assay: GSTA expression induced by C/EBPβ activation, immunochemical method; format: cell-based; design: key: +: similar activation effects to oltipraz; ++: stronger activation effects than oltipraz; conditions: 30 μM, 24 hours, nuclear fractions or lysates, relative to oltipraz
Experimental: as §1
When C/EBPβ gene is deleted in animals, regeneration of live tissue is impossible [Greenbaum et al., J Clin Invest. 1998; 102(5):996-1007]. C/EBPβ activation inhibits transforming growth factors (TGF-β) which is a mediating factor of hepatic fibrosis [Kang et al., FASEB J. 2002; 16(14):1988-90]. Therefore, C/EBPβ activation plays an important role in liver tissue regeneration and hepatic fibrosis inhibition. […]

SMILES	degree of phosphorylation of 188Threonine residue of C/EBPβ [1]	C/EBPβ activation [1]	phosphorylation of 105Serine residue of C/EBPβ [1]	p-C/EBPβ (105Serine) localisation, cytoplasmic to nuclear fractions [1]	GSTA induction [2]
S=c1ssc2c1CN(Cc1ccccc1)CC2 [Compound 1, 5-benzyl-4,5,6,7-tetrahydro-1,2-dithiolo[4,3-c]pyridine-3-thion]	not changed at all	O	increased	moved into the nuclear fractions	++
CCOC(=O)N1CCc2ssc(=S)c2C1 [Compound 2, 3-thioxo-6,7-dihydro-3H,4H-1,2-dithiolo[4,3-c]pyridine-5-carboxylic acid ethyl ester]	not changed at all	O	increased	moved into the nuclear fractions	++
